# Results from article PMC7575536, “Synthesis of an acyl-acyl carrier protein synthetase inhibitor to study fatty acid recycling” (Scientific Reports, 2020).
# Structures can show the parent of a compound that is named as a salt.
# Molecular target: T1, VhAasS (Vibrio harveyi, UniProt Q00IB3)
# T1 construct: gene aasS; His6-tagged, expressed in E. coli BL21[DE3], Ni-NTA purified; tag removal not mentioned
# T1 sequence (Q00IB3 1-533): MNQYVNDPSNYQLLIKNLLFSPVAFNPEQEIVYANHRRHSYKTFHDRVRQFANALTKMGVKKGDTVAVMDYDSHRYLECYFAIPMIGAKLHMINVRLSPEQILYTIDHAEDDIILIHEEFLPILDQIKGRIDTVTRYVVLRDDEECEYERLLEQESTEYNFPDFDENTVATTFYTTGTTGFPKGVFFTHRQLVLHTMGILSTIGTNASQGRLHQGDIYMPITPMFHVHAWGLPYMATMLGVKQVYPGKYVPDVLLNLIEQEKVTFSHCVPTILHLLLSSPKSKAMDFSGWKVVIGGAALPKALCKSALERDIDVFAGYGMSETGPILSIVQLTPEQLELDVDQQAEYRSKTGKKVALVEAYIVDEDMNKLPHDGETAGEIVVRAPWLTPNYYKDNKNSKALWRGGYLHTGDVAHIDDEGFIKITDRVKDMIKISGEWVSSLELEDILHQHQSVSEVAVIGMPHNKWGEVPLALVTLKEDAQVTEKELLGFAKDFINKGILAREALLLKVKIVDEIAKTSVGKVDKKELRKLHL
# Experiment: urea-PAGE of acyl-ACP loading, ImageJ densitometry
# Type: biochemical
# Conditions: decanoic acid 1 mM, ATP 10 mM, MgCl2 12.5 mM, TCEP 2.5 mM; holo-EcACP or holo-VcACP 30 µM; enzyme 0.5 µM; pH 7.5, 37 °C, 24 h
structure (smiles),measurement,value
"CCCCCCCCCC(=O)NS(=O)(=O)OC[C@H]1O[C@@H](n2cnc3c(N)ncnc32)[C@H](O)[C@@H]1O [compound 7, 5′-O-(N-decanylsulfamoyl)adenosine mono sodium salt]",% inhibition at 1 mM,"In the presence of C10-AMS, VhAasS is completely inhibited from loading decanoic acid"
